Earlier results, collected in PMC3066546, “Development of modified nucleosides that have supremely high anti-HIV activity and low toxicity and prevent the emergence of resistant HIV mutants” (Proceedings of the Japan Academy. Series B, Physical and …, 2011).
Where two headings read alike, the source gives them in different places.

Columns and labels:
HIV-1MDR = test system: HIV-1MDR; parameters: method as in PMID 18487070; conditions: Table 7; read-out: Anti-HIV activity (MAGI assay, µg) HIV-1MDR
[1] = test system: multi-drug resistant HIV mutant
HIV-1M184V = test system: HIV-1M184V; parameters: method as in PMID 18487070; conditions: Table 7; read-out: Anti-HIV activity (MAGI assay, µg) HIV-1M184V
HIV-1wild = test system: HIV-1wild; parameters: method as in PMID 18487070; conditions: Table 7; read-out: Anti-HIV activity (MAGI assay, µg) HIV-1wild
RT of wild-type HIV = test system: RT of wild-type HIV; parameters: method as in PMID 15456247; conditions: compared with AZTTP
RT of the M184V mutant = test system: RT of the M184V mutant; parameters: method as in PMID 15456247; conditions: 4′EddCTP compared with RT of wild-type HIV
DNA polymerase α = conditions: read-out: EC50 against DNA polymerase α
[2] = CEM cells, MT4 cells, MAGI-CCR5 cells
[3] = target: human mitochondrion DNA polymerase (DNA polymerase γ); parameters: method as in PMID 17548498, PMID 18487070; conditions: read-out: EC50 to inhibit the incorporation of dATP
DNA polymerase β = conditions: read-out: EC50 against DNA polymerase β
[4] = parameters: method as in PMID 563233, PMID 17548498, PMID 18487070; conditions: 120 min, acidic conditions of gastric juices (pH 1.06), 24 ℃
HIV-1 Wild-type = test system: HIV-1 Wild-type; parameters: method as in PMID 563233, PMID 17548498, PMID 18487070; conditions: Table 6
adenosine deaminase = test system: adenosine deaminase; parameters: method as in PMID 563233, PMID 17548498, PMID 18487070; conditions: conditions where 4′EdA was completely deaminated in 60 min
[5] = Table 6
HIV [6] = conditions: 24 h after removal of extracellular drug, MT4 cells and MAGI cells cultured with 0.1 µM
HIV-1 MDR = test system: HIV-1 MDR; parameters: method as in PMID 563233, PMID 17548498, PMID 18487070; conditions: Table 6
HIV-1 M184V = test system: HIV-1 M184V; parameters: method as in PMID 563233, PMID 17548498, PMID 18487070; conditions: Table 6
HIV [7] = test system: HIV; parameters: method as in PMID 15456247

C#C[C@@]1(CO)C=C[C@H](n2cc(C)c(=O)[nH]c2=O)O1 [4′Ed4T, 4′-C-ethynyl-2′,3′-didehydro-3′-deoxythymidine]
EC50 (HIV-1MDR): 1100 nM | potency against multi-drug resistant HIV mutant compared with d4T [1]: more potent | potency against M184V-mutant compared with d4T (M184V-mutant): a little less potent | EC50 (HIV-1M184V): 17000 nM | EC50 (HIV-1wild): 1500 nM | potency against wild-type HIV compared with d4T (wild-type HIV): more potent

C#CC1(COP(=O)(O)OP(=O)(O)OP(=O)(O)O)CCC(n2ccc(N)nc2=O)O1 (stereo not drawn) [4′EddCTP]
activity against the RT of wild-type HIV (RT of wild-type HIV): more active | activity against RT of the M184V mutant (RT of the M184V mutant): much less active

C#C[C@]1(COP(=O)(O)OP(=O)(O)OP(=O)(O)O)O[C@@H](n2cnc3c(N)nc(F)nc32)C[C@@H]1O [4′Ed2FATP, 2′-deoxy-4′-C-ethynyl-2-fluoroadenosine-5-O-triphosphate]
EC50 (DNA polymerase α): > 200000 nM | intracellular half-life (T1/2) [2]: ~18 h | EC50 [3]: 10000 nM | EC50 (DNA polymerase β): > 200000 nM

C#C[C@]1(CO)O[C@@H](n2cnc3c(N)nc(F)nc32)C[C@@H]1O [4′Ed2FA, 2′-deoxy-4′-C-ethynyl-2-fluoroadenosine]
EC50 (HIV-1MDR): 0.14 nM | part decomposed [4]: 3% | EC50 (HIV-1wild): 0.2 nM | EC50 (HIV-1 Wild-type): 0.068 nM | stability to adenosine deaminase (adenosine deaminase): completely stable | Survivors/total (ICR mice; i.v., single dosage 1 mg Kg−1, ICR mice): 8/8 | Survivors/total (ICR mice; i.v., single dosage 3 mg Kg−1, ICR mice): 8/8 | Survivors/total (ICR mice; i.v., single dosage 10 mg Kg−1, ICR mice): 8/8 | Survivors/total (ICR mice; i.v., single dosage 30 mg Kg−1, ICR mice): 8/8 | Survivors/total (ICR mice; i.v., single dosage 100 mg Kg−1, ICR mice): 8/8 | acute toxicity to mice (ICR mice; oral or intravenous administration up to 100 mg kg−1): did not show any acute toxicity | Survivors/total (ICR mice; p.o, single dosage 1 mg Kg−1, ICR mice): 8/8 | Survivors/total (ICR mice; p.o, single dosage 3 mg Kg−1, ICR mice): 8/8 | Survivors/total (ICR mice; p.o, single dosage 10 mg Kg−1, ICR mice): 8/8 | Survivors/total (ICR mice; p.o, single dosage 30 mg Kg−1, ICR mice): 8/8 | Survivors/total (ICR mice; p.o, single dosage 100 mg Kg−1, ICR mice): 8/8 | CC50 [5]: 7500 nM | cells protected against the infection of HIV (HIV [6]): About 50% | EC50 (HIV-1 MDR): 0.15 nM | EC50 (HIV-1 M184V): 3.1 nM

C#C[C@@]1(CO)CC[C@H](n2ccc(N)nc2=O)O1 [4′EddC, 4′-C-ethynyl-2′,3′-dideoxycytidine]
activity against HIV in cellular systems (HIV [7]): inactive
